{"source": "paper PMC6522510", "about": "(Nature Communications, 2019)", "parameters_in_all_cases": "species or system AML cell lines (8); Primary HTS, single concentration about 10 uM, Cell Titer Glo viability; log10 luminescence, per cent inhibition relative to cycloheximide control", "conditions_in_all_cases": "72 h, relative to cycloheximide control, log10 luminescence; inhibitor", "key": {"U937": {"system": "U937"}, "MOLM-13": {"system": "MOLM-13"}, "CHRF288-11": {"system": "CHRF288-11"}, "CMK": {"system": "CMK"}, "ML-2": {"system": "ML-2"}, "CMS": {"system": "CMS"}, "MV4-11": {"system": "MV4-11"}, "M07e": {"system": "M07e"}}}
{"smiles": "O=C1NC(=NCCc2cccc(F)c2)S/C1=C\\c1ccc2ncccc2c1", "note": "[SJ000581129-1]", "values": [{"measurement": "U937 %inh", "setting": "U937", "value": 84.57, "unit": "%"}, {"measurement": "MOLM-13 %inh", "setting": "MOLM-13", "value": 21.32, "unit": "%"}, {"measurement": "CHRF288-11 %inh", "setting": "CHRF288-11", "value": 23.25, "unit": "%"}, {"measurement": "CMK %inh", "setting": "CMK", "value": 94.55, "unit": "%"}, {"measurement": "ML-2 %inh", "setting": "ML-2", "value": 47.36, "unit": "%"}, {"measurement": "CMS %inh", "setting": "CMS", "value": 28.27, "unit": "%"}, {"measurement": "MV4-11 %inh", "setting": "MV4-11", "value": 43.95, "unit": "%"}, {"measurement": "M07e %inh", "setting": "M07e", "value": 27.94, "unit": "%"}]}
{"smiles": "OCCn1c(-c2ccncc2)c(-c2ccc(F)cc2)c2ncccc21", "note": "[SJ000581130-1]", "values": [{"measurement": "U937 %inh", "setting": "U937", "value": 1.305, "unit": "%"}, {"measurement": "MOLM-13 %inh", "setting": "MOLM-13", "value": 0.6818, "unit": "%"}, {"measurement": "CHRF288-11 %inh", "setting": "CHRF288-11", "value": 7.224, "unit": "%"}, {"measurement": "CMK %inh", "setting": "CMK", "value": 5.975, "unit": "%"}, {"measurement": "ML-2 %inh", "setting": "ML-2", "value": -0.1929, "unit": "%"}, {"measurement": "CMS %inh", "setting": "CMS", "value": 3.754, "unit": "%"}, {"measurement": "MV4-11 %inh", "setting": "MV4-11", "value": 4.176, "unit": "%"}, {"measurement": "M07e %inh", "setting": "M07e", "value": 6.21, "unit": "%"}]}
{"smiles": "N#Cc1c(C(=O)c2ccccc2)cnn1-c1ccccc1", "note": "[SJ000581131-1]", "values": [{"measurement": "U937 %inh", "setting": "U937", "value": -0.2486, "unit": "%"}, {"measurement": "MOLM-13 %inh", "setting": "MOLM-13", "value": 1.329, "unit": "%"}, {"measurement": "CHRF288-11 %inh", "setting": "CHRF288-11", "value": 0.7045, "unit": "%"}, {"measurement": "CMK %inh", "setting": "CMK", "value": -0.4032, "unit": "%"}, {"measurement": "ML-2 %inh", "setting": "ML-2", "value": 0.5024, "unit": "%"}, {"measurement": "CMS %inh", "setting": "CMS", "value": 1.498, "unit": "%"}, {"measurement": "MV4-11 %inh", "setting": "MV4-11", "value": 2.305, "unit": "%"}, {"measurement": "M07e %inh", "setting": "M07e", "value": 8.327, "unit": "%"}]}
{"smiles": "Nc1c(C(=O)c2ccc(-c3cccnc3)cc2)cnn1-c1ccc(F)cc1", "note": "[SJ000581132-1]", "values": [{"measurement": "U937 %inh", "setting": "U937", "value": -1.133, "unit": "%"}, {"measurement": "MOLM-13 %inh", "setting": "MOLM-13", "value": 0.5666, "unit": "%"}, {"measurement": "CHRF288-11 %inh", "setting": "CHRF288-11", "value": 1.549, "unit": "%"}, {"measurement": "CMK %inh", "setting": "CMK", "value": -0.6442, "unit": "%"}, {"measurement": "ML-2 %inh", "setting": "ML-2", "value": -1.014, "unit": "%"}, {"measurement": "CMS %inh", "setting": "CMS", "value": 7.229, "unit": "%"}, {"measurement": "MV4-11 %inh", "setting": "MV4-11", "value": 2.713, "unit": "%"}, {"measurement": "M07e %inh", "setting": "M07e", "value": 5.04, "unit": "%"}]}
{"smiles": "CN1C[C@@H]2Cn3c(c(C4=C(c5cn(C)c6ccccc56)C(=O)NC4=O)c4ccccc43)C[C@H]2C1", "note": "[SJ000581133-2]", "values": [{"measurement": "U937 %inh", "setting": "U937", "value": 4.609, "unit": "%"}, {"measurement": "MOLM-13 %inh", "setting": "MOLM-13", "value": 14.65, "unit": "%"}, {"measurement": "CHRF288-11 %inh", "setting": "CHRF288-11", "value": 9.973, "unit": "%"}, {"measurement": "CMK %inh", "setting": "CMK", "value": 11.96, "unit": "%"}, {"measurement": "ML-2 %inh", "setting": "ML-2", "value": 1.581, "unit": "%"}, {"measurement": "CMS %inh", "setting": "CMS", "value": -1.372, "unit": "%"}, {"measurement": "MV4-11 %inh", "setting": "MV4-11", "value": 12.86, "unit": "%"}, {"measurement": "M07e %inh", "setting": "M07e", "value": 4.251, "unit": "%"}]}
{"smiles": "O=C1NC(=NCc2ccccc2Cl)S/C1=C\\c1ccc2ncccc2c1", "note": "[SJ000581134-1]", "values": [{"measurement": "U937 %inh", "setting": "U937", "value": 2.507, "unit": "%"}, {"measurement": "MOLM-13 %inh", "setting": "MOLM-13", "value": 0.6384, "unit": "%"}, {"measurement": "CHRF288-11 %inh", "setting": "CHRF288-11", "value": -1.242, "unit": "%"}, {"measurement": "CMK %inh", "setting": "CMK", "value": -0.8248, "unit": "%"}, {"measurement": "ML-2 %inh", "setting": "ML-2", "value": 1.267, "unit": "%"}, {"measurement": "CMS %inh", "setting": "CMS", "value": 2.499, "unit": "%"}, {"measurement": "MV4-11 %inh", "setting": "MV4-11", "value": 3.2, "unit": "%"}, {"measurement": "M07e %inh", "setting": "M07e", "value": 4.671, "unit": "%"}]}
{"smiles": "O=C1NC(=N[C@@H]2C[C@H]2c2ccccc2)S/C1=C\\c1ccc2ncccc2c1", "note": "[SJ000581135-1]", "values": [{"measurement": "U937 %inh", "setting": "U937", "value": 9.436, "unit": "%"}, {"measurement": "MOLM-13 %inh", "setting": "MOLM-13", "value": 1.012, "unit": "%"}, {"measurement": "CHRF288-11 %inh", "setting": "CHRF288-11", "value": 1.296, "unit": "%"}, {"measurement": "CMK %inh", "setting": "CMK", "value": -0.2461, "unit": "%"}, {"measurement": "ML-2 %inh", "setting": "ML-2", "value": 0.9867, "unit": "%"}, {"measurement": "CMS %inh", "setting": "CMS", "value": -0.3906, "unit": "%"}, {"measurement": "MV4-11 %inh", "setting": "MV4-11", "value": 2.985, "unit": "%"}, {"measurement": "M07e %inh", "setting": "M07e", "value": 3.343, "unit": "%"}]}
{"smiles": "Cn1cc(C2=C(c3cccc4ccccc34)C(=O)NC2=O)c2ccccc21", "note": "[SJ000581136-1]", "values": [{"measurement": "U937 %inh", "setting": "U937", "value": 2.302, "unit": "%"}, {"measurement": "MOLM-13 %inh", "setting": "MOLM-13", "value": -0.09214, "unit": "%"}, {"measurement": "CHRF288-11 %inh", "setting": "CHRF288-11", "value": 6.432, "unit": "%"}, {"measurement": "CMK %inh", "setting": "CMK", "value": 2.941, "unit": "%"}, {"measurement": "ML-2 %inh", "setting": "ML-2", "value": -1.062, "unit": "%"}, {"measurement": "CMS %inh", "setting": "CMS", "value": 3.922, "unit": "%"}, {"measurement": "MV4-11 %inh", "setting": "MV4-11", "value": 3.742, "unit": "%"}, {"measurement": "M07e %inh", "setting": "M07e", "value": 1.122, "unit": "%"}]}
{"smiles": "Cn1cc(C2=C(c3cccc([N+](=O)[O-])c3)C(=O)NC2=O)c2ccccc21", "note": "[SJ000581137-1]", "values": [{"measurement": "U937 %inh", "setting": "U937", "value": -0.4034, "unit": "%"}, {"measurement": "MOLM-13 %inh", "setting": "MOLM-13", "value": 11.77, "unit": "%"}, {"measurement": "CHRF288-11 %inh", "setting": "CHRF288-11", "value": 36.65, "unit": "%"}, {"measurement": "CMK %inh", "setting": "CMK", "value": 90.94, "unit": "%"}, {"measurement": "ML-2 %inh", "setting": "ML-2", "value": 13.53, "unit": "%"}, {"measurement": "CMS %inh", "setting": "CMS", "value": 50.99, "unit": "%"}, {"measurement": "MV4-11 %inh", "setting": "MV4-11", "value": 20.06, "unit": "%"}, {"measurement": "M07e %inh", "setting": "M07e", "value": 11.35, "unit": "%"}]}
{"smiles": "Cn1c(=O)c(Oc2ccc(F)cc2F)cc2cnc(NCC(C)(C)O)nc21", "note": "[SJ000581138-1]", "values": [{"measurement": "U937 %inh", "setting": "U937", "value": 1.09, "unit": "%"}, {"measurement": "MOLM-13 %inh", "setting": "MOLM-13", "value": 1.398, "unit": "%"}, {"measurement": "CHRF288-11 %inh", "setting": "CHRF288-11", "value": 7.837, "unit": "%"}, {"measurement": "CMK %inh", "setting": "CMK", "value": 2.21, "unit": "%"}, {"measurement": "ML-2 %inh", "setting": "ML-2", "value": -0.3186, "unit": "%"}, {"measurement": "CMS %inh", "setting": "CMS", "value": 0.7178, "unit": "%"}, {"measurement": "MV4-11 %inh", "setting": "MV4-11", "value": 3.026, "unit": "%"}, {"measurement": "M07e %inh", "setting": "M07e", "value": 5.81, "unit": "%"}]}
{"smiles": "CC(=O)N[C@@H](Cc1ccc(OP(=O)(O)O)cc1)C(=O)N[C@H]1CCC(=O)N2CCC[C@@H](C(=O)NCc3ccc(O)cc3)N2C1=O", "note": "[SJ000581139-1]", "values": [{"measurement": "U937 %inh", "setting": "U937", "value": -0.05209, "unit": "%"}, {"measurement": "MOLM-13 %inh", "setting": "MOLM-13", "value": 2.506, "unit": "%"}, {"measurement": "CHRF288-11 %inh", "setting": "CHRF288-11", "value": -2.024, "unit": "%"}, {"measurement": "CMK %inh", "setting": "CMK", "value": 0.1299, "unit": "%"}, {"measurement": "ML-2 %inh", "setting": "ML-2", "value": -0.8925, "unit": "%"}, {"measurement": "CMS %inh", "setting": "CMS", "value": 2.649, "unit": "%"}, {"measurement": "MV4-11 %inh", "setting": "MV4-11", "value": 1.337, "unit": "%"}, {"measurement": "M07e %inh", "setting": "M07e", "value": 2.301, "unit": "%"}]}
{"smiles": "COc1ccccc1CN=C1NC(=O)/C(=C/c2ccc3ncccc3c2)S1", "note": "[SJ000581141-1]", "values": [{"measurement": "U937 %inh", "setting": "U937", "value": 8.458, "unit": "%"}, {"measurement": "MOLM-13 %inh", "setting": "MOLM-13", "value": 11.11, "unit": "%"}, {"measurement": "CHRF288-11 %inh", "setting": "CHRF288-11", "value": -2.393, "unit": "%"}, {"measurement": "CMK %inh", "setting": "CMK", "value": 34.72, "unit": "%"}, {"measurement": "ML-2 %inh", "setting": "ML-2", "value": 2.098, "unit": "%"}, {"measurement": "CMS %inh", "setting": "CMS", "value": 6.446, "unit": "%"}, {"measurement": "MV4-11 %inh", "setting": "MV4-11", "value": 3.855, "unit": "%"}, {"measurement": "M07e %inh", "setting": "M07e", "value": 13.46, "unit": "%"}]}
